This data set in a line: microscopy of dexamethasone crystals in pure saline and in the innovation. It is filed as physicochemical. The following applies: in phospholipid solution.

Regarding `CC(=O)OCC(=O)[C@@]1(O)[C@H](C)C[C@H]2[C@@H]3CCC4=CC(=O)C=C[C@]4(C)[C@@]3(F)[C@@H](O)C[C@@]21C` [dexamethasone crystals, dexamethasone acetate], the “crystals after twelve hours” value (after twelve hours) is listed as “no longer detectable”. Besides, the reduction of crystals (within six hours) was 50%.

For the origin of these results see patent US20130296267A1, “AGENT FOR INTRA-ARTICULAR INJECTION” (priority 2008, published 2013).
